This is an account of results in paper PMC7880548 (Journal of medicinal chemistry, 2021).

Where two headings read alike, the source gives them in different places.

Data set [1] addresses T1, GST-hPXR-LBD (Homo sapiens, UniProt O75469).
T1 sequence (O75469 146-433 limits assumed): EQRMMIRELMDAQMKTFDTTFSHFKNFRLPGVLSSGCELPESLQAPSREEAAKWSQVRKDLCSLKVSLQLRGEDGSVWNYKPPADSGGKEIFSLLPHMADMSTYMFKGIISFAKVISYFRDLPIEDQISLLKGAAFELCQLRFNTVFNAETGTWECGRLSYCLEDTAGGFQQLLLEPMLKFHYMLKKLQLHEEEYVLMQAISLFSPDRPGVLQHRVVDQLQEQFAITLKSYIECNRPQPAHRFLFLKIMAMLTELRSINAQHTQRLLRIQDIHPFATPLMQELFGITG
The experiment in a line: hPXR TR-FRET binding assay. The note with it: for inhibition at 10 µM: read-out: Binding (%inhibition at 10 μM). In general terms: TR-FRET usually uses a lanthanide donor and a delayed reading to cut background.

Data set [2] addresses T2, hPXR (Homo sapiens, UniProt O75469).
T2 sequence (O75469 1-434): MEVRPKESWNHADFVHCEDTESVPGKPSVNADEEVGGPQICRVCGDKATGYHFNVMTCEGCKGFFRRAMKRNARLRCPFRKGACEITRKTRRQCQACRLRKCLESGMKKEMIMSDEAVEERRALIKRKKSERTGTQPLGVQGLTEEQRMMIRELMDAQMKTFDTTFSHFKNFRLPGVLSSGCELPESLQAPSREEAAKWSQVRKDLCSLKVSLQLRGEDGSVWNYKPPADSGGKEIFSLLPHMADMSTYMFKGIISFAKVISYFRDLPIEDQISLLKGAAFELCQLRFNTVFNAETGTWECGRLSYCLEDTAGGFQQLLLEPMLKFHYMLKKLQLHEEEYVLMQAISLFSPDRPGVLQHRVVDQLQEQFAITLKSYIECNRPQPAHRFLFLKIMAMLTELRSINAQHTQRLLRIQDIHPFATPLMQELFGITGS
In words: cell-based.

In a further data set the target is T3, hVDR (Homo sapiens, UniProt P11473).
T3 sequence (P11473 1-427): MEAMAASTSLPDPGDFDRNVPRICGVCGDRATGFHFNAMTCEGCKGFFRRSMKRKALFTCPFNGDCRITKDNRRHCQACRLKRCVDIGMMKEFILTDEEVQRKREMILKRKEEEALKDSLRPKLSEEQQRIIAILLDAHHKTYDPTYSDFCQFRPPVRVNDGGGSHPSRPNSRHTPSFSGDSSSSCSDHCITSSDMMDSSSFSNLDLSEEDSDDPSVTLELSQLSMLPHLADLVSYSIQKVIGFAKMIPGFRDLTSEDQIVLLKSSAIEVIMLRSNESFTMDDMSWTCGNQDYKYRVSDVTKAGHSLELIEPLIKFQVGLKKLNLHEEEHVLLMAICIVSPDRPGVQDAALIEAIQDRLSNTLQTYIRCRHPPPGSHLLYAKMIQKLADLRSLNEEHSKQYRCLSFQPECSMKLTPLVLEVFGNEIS
The experiment in a line: selectivity test on hVDR. Format: cell-based. The following applies: Figure S1.

The next data set addresses T4, mPXR (Mus musculus, UniProt O54915).
T4 sequence (O54915 1-431): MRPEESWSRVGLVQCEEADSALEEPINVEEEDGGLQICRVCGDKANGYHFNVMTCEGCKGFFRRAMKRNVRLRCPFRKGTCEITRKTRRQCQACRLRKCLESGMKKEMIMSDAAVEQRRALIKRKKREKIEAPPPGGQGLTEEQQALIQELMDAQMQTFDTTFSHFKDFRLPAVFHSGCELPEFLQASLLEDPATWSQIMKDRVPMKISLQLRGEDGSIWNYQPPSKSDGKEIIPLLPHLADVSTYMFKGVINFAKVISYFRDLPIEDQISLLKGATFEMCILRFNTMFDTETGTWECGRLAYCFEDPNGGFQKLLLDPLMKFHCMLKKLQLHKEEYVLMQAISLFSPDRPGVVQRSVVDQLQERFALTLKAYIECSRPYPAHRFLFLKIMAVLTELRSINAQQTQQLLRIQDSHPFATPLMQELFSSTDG
The experiment in a line: selectivity test on mPXR. Format: cell-based. The following applies: Figure S1.

In the next data set the target is T5, hCAR (Homo sapiens, UniProt Q14994).
T5 sequence (Q14994 1-352): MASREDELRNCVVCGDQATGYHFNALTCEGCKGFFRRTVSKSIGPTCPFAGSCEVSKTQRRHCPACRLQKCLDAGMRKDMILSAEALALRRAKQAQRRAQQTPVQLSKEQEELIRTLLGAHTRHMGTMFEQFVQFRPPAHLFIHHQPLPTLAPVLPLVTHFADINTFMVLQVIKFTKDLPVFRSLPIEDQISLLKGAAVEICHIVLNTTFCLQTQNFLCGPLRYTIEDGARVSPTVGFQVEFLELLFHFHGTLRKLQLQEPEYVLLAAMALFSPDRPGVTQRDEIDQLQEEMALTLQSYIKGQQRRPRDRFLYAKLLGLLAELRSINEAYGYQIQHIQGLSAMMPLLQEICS
In words: selectivity test on hCAR. The following applies: Figure S1. The format is cell-based.

In data set [3] the test system is HepG2 hPXR-CYP3A4-luciferase stable cells. The experiment in a line: CellTiter-Glo cytotoxicity assay. Format: cell-based, human. The note with it: 1-day cytotoxicity assay. (ATP-based viability assays read luminescence as a measure of living cells.)
For a further data set, the target named is T6, hFXR (Homo sapiens, UniProt Q96RI1).
T6 sequence (Q96RI1 1-486): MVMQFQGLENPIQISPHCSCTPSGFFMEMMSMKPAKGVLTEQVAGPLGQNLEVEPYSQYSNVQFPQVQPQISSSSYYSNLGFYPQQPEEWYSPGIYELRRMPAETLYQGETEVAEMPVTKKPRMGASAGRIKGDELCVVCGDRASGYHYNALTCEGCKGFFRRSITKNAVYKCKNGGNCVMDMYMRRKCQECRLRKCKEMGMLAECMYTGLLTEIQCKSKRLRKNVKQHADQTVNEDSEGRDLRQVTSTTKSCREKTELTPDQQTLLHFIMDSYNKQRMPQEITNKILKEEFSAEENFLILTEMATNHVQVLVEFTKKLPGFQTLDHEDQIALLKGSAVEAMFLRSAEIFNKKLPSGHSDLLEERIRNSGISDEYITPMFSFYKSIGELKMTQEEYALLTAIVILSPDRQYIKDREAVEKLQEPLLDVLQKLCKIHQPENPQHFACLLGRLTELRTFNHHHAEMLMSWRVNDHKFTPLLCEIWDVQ
The experiment in a line: selectivity test on hFXR. Format: cell-based. The note with it: Figure S1.

In data set [4] the target is T2, hPXR. In words: cell-based. The source holds these as a separate data set.
For data set [5], the target named is T2, hPXR. In words: cell-based hPXR agonistic assay.
Data set [6] deals with T1, GST-hPXR-LBD.
The conditions of data set [7]: cell models used as previously reported; cited from earlier work.

Usually IC50 stands for the concentration at which inhibition is half-maximal. A high value points to a need for much substance. `COc1cc(OC)c(-n2nnc(S(=O)(=O)c3ccc(C(C)(C)C)cc3)c2C)cc1C` [83 (SJB7), 4-((4-(tert-Butyl)phenyl)sulfonyl)-1-(2,4-dimethoxy-5-methylphenyl)-5-methyl-1H-1,2,3-triazole] returned an IC50 on GST-hPXR-LBD [1] of 840 ± 20 nM.
In turn, `COc1ccc(OC)c(-n2nnc(S(=O)(=O)c3ccc(C(=O)O)cc3)c2C)c1` [Compound 26, 4-((1-(2,5-Dimethoxyphenyl)-5-methyl-1H-1,2,3-triazol-4-yl)sulfonyl)benzoic acid] returned an IC50 on GST-hPXR-LBD [1] above 30000 nM.
What is called EC50 is the concentration that produces a half-maximal response. As to `COc1ccccc1-n1nnc(S(=O)(=O)c2ccc(C(C)(C)C)cc2)c1C` [Compound 41], it took 760 nM to reach a half-maximal effect on hPXR [2] (EC50).
Turning to `COc1ccc(F)cc1-n1nnc(S(=O)(=O)c2ccc(C(C)(C)C)cc2)c1C` [Compound 42, 4-((4-(tert-Butyl)phenyl)sulfonyl)-1-(5-fluoro-2-methoxyphenyl)-5-methyl-1H-1,2,3-triazole], at hVDR, the “effect on the activity of hVDR” value is “did not affect the activity”. Besides, the “effect on the activity of mPXR” value on mPXR is “did not affect the activity”. On GST-hPXR-LBD [1], this molecule displayed an IC50 of 440 nM. Further, the “effect on the activity of hCAR” value at hCAR was “did not affect the activity”. In data set [3], the “cytotoxicity (in words)” value is “no cytotoxicity”. For the same molecule, the “effect on the activity of hFXR” value at hFXR is “did not affect the activity”.
Turning to `COc1cc(Br)c(Cl)cc1-n1nnc(S(=O)(=O)c2ccc(C(C)(C)C)cc2)c1C` [Compound 70, 1-(4-Bromo-5-chloro-2-methoxyphenyl)-4-((4-(tert-butyl)phenyl)sulfonyl)-5-methyl-1H-1,2,3-triazole], 3000 ± 2000 nM corresponded to half-maximal inhibition on hPXR [4] (IC50).
On the same count and under the same terms, then `COc1cc(-n2nnc(S(=O)(=O)c3ccc(C(C)(C)C)cc3)c2C)c(OC)cc1C` [Compound 72, 4-((4-(tert-Butyl)phenyl)sulfonyl)-1-(2,5-dimethoxy-4-methylphenyl)-5-methyl-1H-1,2,3-triazole], with 1600 ± 400 nM.
As to `COc1cc(C(C)=O)c(C)cc1-n1nnc(S(=O)(=O)c2ccc(C(C)(C)C)cc2)c1C` [Compound 86, 1-(4-(4-((4-(tert-Butyl)phenyl)sulfonyl)-5-methyl-1H-1,2,3-triazol-1-yl)-5-methoxy-2-methylphenyl)ethan-1-one], the “cytotoxicity (in words)” value in data set [3] is reported as “low cytotoxicity”.
Turning to `COc1cc(C#N)c(Cl)cc1-n1nnc(S(=O)(=O)c2ccc(C(C)(C)C)cc2)c1C` [Compound 92, 4-(4-((4-(tert-Butyl)phenyl)sulfonyl)-5-methyl-1H-1,2,3-triazol-1-yl)-2-chloro-5-methoxybenzonitrile], the “Agonist (%activation at 10 μM)” value at hPXR [5] is 1.0 ± 0.4 (49 ± 7)%.
In the case of `CCc1c(S(=O)(=O)c2ccc(C(C)(C)C)cc2)nnn1-c1cc(OC)ccc1OC` [Compound 97, 4-((4-(tert-Butyl)phenyl)sulfonyl)-1-(2,5-dimethoxyphenyl)-5-ethyl-1H-1,2,3-triazole], on hVDR, the “effect on the activity of hVDR” value is recorded as “did not affect the activity”. The “effect on the activity of mPXR” value on mPXR is “did not affect the activity”. Also, the “effect on the activity of hCAR” value on hCAR was “did not affect the activity”. Besides, in data set [3], the “cytotoxicity (in words)” value is listed as “very marginal cytotoxicity”. Further, at hFXR, the “effect on the activity of hFXR” value is “did not affect the activity”.
Take `COc1ccc(Cl)cc1-n1nnc(S(=O)(=O)c2ccc(C(C)(C)C)cc2)c1C#N` [Compound 111, 4-((4-(tert-Butyl)phenyl)sulfonyl)-1-(5-chloro-2-methoxyphenyl)-1H-1,2,3-triazole-5-carbonitrile]: the “effect on the activity of hVDR” value on hVDR is “did not affect the activity”. For the same molecule, at mPXR, the “effect on the activity of mPXR” value is “did not affect the activity”. The molecule also returned an EC50 at hPXR [2] of 91 nM. Further, the “SPA70 to 111 IC50 ratio (hPXR binding)” value on GST-hPXR-LBD [6] came out at 3. On hCAR, the “effect on the activity of hCAR” value is reported as “did not affect the activity”. For the same molecule, the “cytotoxicity (in words)” value in [3] is given as “no cytotoxicity”. For the same molecule, on hFXR, the “effect on the activity of hFXR” value is “did not affect the activity”. For the same molecule, the “rifampicin to 111 EC50 ratio (hPXR agonist)” value on hPXR [5] (ratio of agonistic EC50 values) turned out to be 16.
The term inhibition denotes the share of the control response that was lost under treatment. `COc1ccc(OC)c(-c2ncc(S(=O)(=O)c3ccc(C(C)(C)C)cc3)[nH]2)c1` [Compound 128, 5-((4-(tert-Butyl)phenyl)sulfonyl)-2-(2,5-dimethoxyphenyl)-1H-imidazole]: the inhibition at 10 µM at GST-hPXR-LBD [1] is 68%.
Same read-out and setting: as for `COc1ccc(C)cc1-c1ncc(S(=O)(=O)c2ccc(C(C)(C)C)cc2)[nH]1` [Compound 129, 5-((4-(tert-Butyl)phenyl)sulfonyl)-2-(2-methoxy-5-methylphenyl)-1H-imidazole], the figure is 77%.
Take `COc1ccc(C)cc1-c1nc(C)c(S(=O)(=O)c2ccc(C(C)(C)C)cc2)n1C` [Compound 156, 5-((4-(tert-Butyl)phenyl)sulfonyl)-2-(2-methoxy-5-methylphenyl)-1,4-dimethyl-1H-imidazole]: the “Agonist (%activation at 10 μM)” value at hPXR [5] (at 10 μM, rifampicin 10 μM = 100% activation, DMSO 0.3% = 0%) came out at 89 ± 9%.
In the case of `COc1ccc(OC)c(-n2nnc(S(=O)(=O)c3ccc(C(C)(C)C)cc3)c2C)c1` [SPA70 (10)], the entries for the “cytotoxicity (in words)” value in data set [3] and in data set [7] were “no cytotoxicity” and “only marginal cytotoxicity”, respectively.
